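48-hour exposure; five concentrations; linearly interpolated endpoints. TGI: total growth inhibition.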
What was measured:
Test in all cases: NCI tumour cell line growth inhibition, 48 h
[1] = test system: 786-0 renal
[2] = test system: A498 renal
[3] = test system: A549 NSCLC
[4] = test system: ACHN renal
[5] = test system: BT-549 breast
[6] = test system: CAKI-1 renal
[7] = test system: CCRF-CEM leukemia
[8] = test system: COLO 205 colon
[9] = test system: DU-145 prostate
[10] = test system: EKVX NSCLC
[11] = test system: HCC-2998 colon
[12] = test system: HCT-116 colon
[13] = test system: HCT-15 colon
[14] = test system: HOP-62 NSCLC
[15] = test system: HOP-92 NSCLC
[16] = test system: HS 578T breast
[17] = test system: HT29 colon
[18] = test system: IGROV1 ovarian
[19] = test system: K-562 leukemia
[20] = test system: KM12 colon
[21] = test system: LOX IMVI melanoma
[22] = test system: M14 melanoma
[23] = test system: MALME-3M melanoma
[24] = test system: MCF7 breast
[25] = test system: MDA-MB-231 breast
[26] = test system: MDA-MB-435
[27] = test system: MDA-N
[28] = test system: MOLT-4 leukemia
[29] = test system: NCI-H226 lung
[30] = test system: NCI-H23 lung
[31] = test system: NCI-H460 lung
[32] = test system: NCI-H522 lung
[33] = test system: NCI/ADR-RES ovarian
[34] = test system: OVCAR-3 ovarian
[35] = test system: OVCAR-4 ovarian
[36] = test system: OVCAR-5 ovarian
[37] = test system: OVCAR-8 ovarian
[38] = test system: PC-3 prostate
[39] = test system: RPMI-8226 leukemia
[40] = test system: RXF 393 renal
[41] = test system: SF-268 CNS
[42] = test system: SF-295 CNS
[43] = test system: SF-539 CNS
[44] = test system: SK-MEL-2 melanoma
[45] = test system: SK-MEL-28 melanoma
[46] = test system: SK-MEL-5 melanoma
[47] = test system: SK-OV-3 ovarian
[48] = test system: SN12C renal
[49] = test system: SNB-19 CNS
[50] = test system: SNB-75 CNS
[51] = test system: SR leukemia
[52] = test system: SW-620 colon
[53] = test system: T-47D breast
[54] = test system: TK-10 renal
[55] = test system: U251 CNS
[56] = test system: UACC-257 melanoma
[57] = test system: UACC-62 melanoma
[58] = test system: UO-31 renal
[59] = test system: HL-60(TB) leukemia

O=C(/C=C/c1cccc(Oc2ccccc2)c1)NCc1ccc(C(=O)NCc2ccccc2)cc1
TGI [1]: > 100 µM | TGI [2]: > 100 µM | TGI [3]: > 100 µM | TGI [4]: > 100 µM | TGI [5]: > 100 µM | TGI [6]: > 100 µM | TGI [7]: > 100 µM | TGI [8]: > 100 µM | TGI [9]: > 100 µM | TGI [10]: > 100 µM | TGI [11]: > 100 µM | TGI [12]: > 100 µM | TGI [13]: > 100 µM | TGI [14]: 18.8 µM | TGI [15]: > 100 µM | TGI [16]: > 100 µM | TGI [17]: > 100 µM | TGI [18]: > 100 µM | TGI [19]: > 100 µM | TGI [20]: > 100 µM | TGI [21]: > 100 µM | TGI [22]: > 100 µM | TGI [23]: > 100 µM | TGI [24]: > 100 µM | TGI [25]: > 100 µM | TGI [26]: > 100 µM | TGI [27]: > 100 µM | TGI [28]: > 100 µM | TGI [29]: 88.1 µM | TGI [30]: > 100 µM | TGI [31]: > 100 µM | TGI [32]: > 100 µM | TGI [33]: > 100 µM | TGI [34]: > 100 µM | TGI [35]: > 100 µM | TGI [36]: > 100 µM | TGI [37]: > 100 µM | TGI [38]: > 100 µM | TGI [39]: > 100 µM | TGI [40]: 41 µM | TGI [41]: > 100 µM | TGI [42]: 79.4 µM | TGI [43]: > 100 µM | TGI [44]: > 100 µM | TGI [45]: > 100 µM | TGI [46]: > 100 µM | TGI [47]: 29.8 µM | TGI [48]: > 100 µM | TGI [49]: > 100 µM | TGI [50]: 53.3 µM | TGI [51]: > 100 µM | TGI [52]: > 100 µM | TGI [53]: > 100 µM | TGI [54]: > 100 µM | TGI [55]: > 100 µM | TGI [56]: > 100 µM | TGI [57]: > 100 µM | TGI [58]: > 100 µM

NC(N)=NC(N)=Nc1ccc(S(=O)(=O)O)cc1
TGI [1]: > 100 µM | TGI [2]: > 100 µM | TGI [3]: > 100 µM | TGI [4]: > 100 µM | TGI [5]: > 100 µM | TGI [6]: > 100 µM | TGI [7]: > 100 µM | TGI [8]: > 100 µM | TGI [9]: > 100 µM | TGI [10]: > 100 µM | TGI [11]: > 100 µM | TGI [12]: > 100 µM | TGI [13]: > 100 µM | TGI [59]: > 100 µM | TGI [14]: > 100 µM | TGI [15]: > 100 µM | TGI [16]: > 100 µM | TGI [17]: > 100 µM | TGI [18]: > 100 µM | TGI [19]: > 100 µM | TGI [20]: > 100 µM | TGI [21]: > 100 µM | TGI [22]: > 100 µM | TGI [23]: > 100 µM | TGI [24]: > 100 µM | TGI [25]: > 100 µM | TGI [26]: > 100 µM | TGI [27]: > 100 µM | TGI [29]: > 100 µM | TGI [30]: > 100 µM | TGI [31]: > 100 µM | TGI [32]: > 100 µM | TGI [33]: > 100 µM | TGI [34]: > 100 µM | TGI [35]: > 100 µM | TGI [36]: > 100 µM | TGI [37]: > 100 µM | TGI [38]: > 100 µM | TGI [39]: > 100 µM | TGI [40]: > 100 µM | TGI [41]: > 100 µM | TGI [42]: > 100 µM | TGI [43]: > 100 µM | TGI [44]: > 100 µM | TGI [45]: > 100 µM | TGI [46]: > 100 µM | TGI [47]: > 100 µM | TGI [48]: > 100 µM | TGI [49]: > 100 µM | TGI [50]: > 100 µM | TGI [51]: > 100 µM | TGI [52]: > 100 µM | TGI [53]: > 100 µM | TGI [54]: > 100 µM | TGI [55]: > 100 µM | TGI [56]: > 100 µM | TGI [57]: > 100 µM | TGI [58]: > 100 µM

— PubChem BioAssay (NCI)
